Series [1] deals with LLC-PK1. The experiment in a line: Protective effect against 3-morpholinosydnonimine-induced cell death in pig LLC-PK1 cells after 1 hr by MTT assay. The series is classed as functional, cell-based. To be noted: Sus scrofa. Background: Tetrazolium assays rely on reduction of a dye to a coloured formazan, in cell work by metabolically active cells.
Series [2] relates to LLC-PK1. Briefly: Protective effect against 3-morpholinosydnonimine-induced cell death in pig LLC-PK1 cells assessed as viability at 50 uM after 1 hr by MTT assay. As to conditions: Sus scrofa, LLC-PK1, 1 h; read-out: Activity. The series is classed as functional.
The subject of series [3] is LLC-PK1. The experiment in a line: Cytotoxicity against pig LLC-PK1 cells. The series is classed as cell-based, Sus scrofa.
The subject of series [4] is LLC-PK1. Briefly: Inhibition of 3-morpholinosydnonimine-induced LDH release in pig LLC-PK1 cells at 50 uM after 24 hrs. Type of series: functional, cell-based. To be noted: Sus scrofa.
Series [5] concerns LLC-PK1. The experiment in a line: Inhibition of 3-morpholinosdynonimine-induced LDH release in pig LLC-PK1 cells at 10 uM after 24 hrs. The series is classed as functional, cell-based. To be noted: Sus scrofa. In general terms: LDH leaks from cells whose membrane has failed.
Series [6] deals with LLC-PK1. The experiment in a line: Inhibition of 3-morpholinosydnonimine-induced LDH release in pig LLC-PK1 cells after 24 hrs. The series is classed as functional, cell-based. To be noted: Sus scrofa.

The results in this text go back to ChEMBL document CHEMBL1142342, “Lignans from the fruits of Forsythia suspensa” (Bioorg Med Chem Lett, 2008).

Activity calls are given as the source filed them. The calls are words filed in the database; no cut-off is given here.

Regarding `COc1cc(O)cc([C@H]2OC[C@H](C(=O)c3ccc(O)c(OC)c3)[C@@H]2CO)c1` [FORSYTHIALAN A], the Activity entry in the series on LLC-PK1 [1] was “Dose-dependent effect”; in the series with LLC-PK1 [3], “Non-toxic”. For the same compound, in the series with LLC-PK1 [2], the viability at 50 µM was 95%. The outcome with LLC-PK1 [4] and in the series with LLC-PK1 [5] was Active.

For `COc1cc(O)cc([C@H]2OC[C@H](C(=O)c3ccc(OC)c(OC)c3)[C@@H]2CO)c1` [FORSYTHIALAN B], the Activity entry was “Dose-dependent effect” in the series on LLC-PK1 [1] and “Non-toxic” with LLC-PK1 [3]. For the same compound, in the series with LLC-PK1 [2], the viability at 50 µM was 85%. Also, the outcome with LLC-PK1 [6] was Active.
